The values that follow come from PMC5382913, “Interactions of the periplasmic binding protein CeuE with Fe(III) n-LICAM^4− siderophore analogues of varied linker length” (Scientific Reports, 2017).

One assay has as its target T1, WT CeuE (Campylobacter jejuni, UniProt Q0P8Q4).
T1 sequence (Q0P8Q4 44-330): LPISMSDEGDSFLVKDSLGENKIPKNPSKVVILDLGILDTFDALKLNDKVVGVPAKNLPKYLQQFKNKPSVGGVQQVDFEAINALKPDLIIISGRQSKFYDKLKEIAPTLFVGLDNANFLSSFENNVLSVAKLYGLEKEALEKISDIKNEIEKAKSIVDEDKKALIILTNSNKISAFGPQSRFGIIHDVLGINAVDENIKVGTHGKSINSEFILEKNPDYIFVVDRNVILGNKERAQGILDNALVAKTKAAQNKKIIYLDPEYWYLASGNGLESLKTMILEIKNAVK
Kind of assay: Intrinsic fluorescence quenching titration, wild type CeuE. Particulars: 240 nM protein in 40 mM Tris-HCl pH 7.5, 150 mM NaCl; 1:1 binding model; triplicate. The source says: (§1) The affinities of CeuE for the four Fe-n-Lic complexes were quantified using intrinsic fluorescence quenching, Table 1, with measurements carried out in triplicate. The data were fitted to a 1:1 binding model and analyzed by non-linear regression. […] An attempt to determine the Kd value of Fe-5-Lic by using a more dilute protein solution was unsuccessful because of the inherent decrease in emission intensity reaching the detection limit of the fluorimeter.
(§2) Fluorescence quenching studies with CeuE were carried out on a Hitachi F-4500 fluorescence spectrophotometer as previously reported.
(§3) A 240 nM solution of CeuE in 40 mM Tris-HCl pH 7.5, 150 mM NaCl was prepared and the concentration verified by both the Bradford method and UV-vis absorbance at 280 nm, using the molar absorbance coefficient predicted by ProtParam (15930 mol^−1 dm^3 cm^−1)[43]. The CeuE solution (2 mL) was titrated stepwise with 16 aliquots of a 12 μM Fe-n-Lic solution resulting in a concentration range of Fe-n-Lic of 0 to 1.19 μM. The observed emission intensity was corrected for photomultiplier tube response and buffer subtracted, then integrated between 310 and 410 nm. The data were normalized and analyzed by nonlinear regression using a one-site binding model in DynaFit[26]. Each system was analyzed in triplicate and the average dissociation constants were calculated as reported previously.

For assay [1], the target named is T2, CeuE mutant H227L (Campylobacter jejuni, UniProt Q0P8Q4, H247L).
T2 sequence (Q0P8Q4 44-330 H247L): T1 sequence (Q0P8Q4 44-330)
Kind of assay: Intrinsic fluorescence quenching titration, CeuE mutant H227L. Particulars: 240 nM protein in 40 mM Tris-HCl pH 7.5, 150 mM NaCl; 1:1 binding model; triplicate.
Description: as §1
(§4) The binding studies with wild type CeuE were followed by titrations to determine the ligand affinity of all five mutants. Fe-5-Lic was chosen because of its strong binding to wild type CeuE and because its linker length matches that of natural catecholate siderophores. Mutation of the Fe(III)-coordinating tyrosine led to a drastic drop in binding affinity in both the single (Y228F) and the double mutants (H227L/Y288F and H227A/Y288F), with Kd values above 1 μM. In contrast, the effect of mutating the histidine was less pronounced. […] However, there is an additional entropic contribution to consider.
(§5) Subsequently, titrations were carried out with Fe-4-Lic, Fe-6-Lic and Fe-8-Lic to identify trends in the affinity for mutants H227L and H227A (Fig. 6(b) and (c)) (Table 1). The resulting Kd values show trends similar to that observed for wild type, but with systematically weaker binding.
as §2, §3

The target of assay [2] is T3, CeuE mutant H227A (Campylobacter jejuni, UniProt Q0P8Q4, H247A).
T3 sequence (Q0P8Q4 44-330 H247A): T1 sequence (Q0P8Q4 44-330)
Kind of assay: Intrinsic fluorescence quenching titration, CeuE mutant H227A. Particulars: 240 nM protein in 40 mM Tris-HCl pH 7.5, 150 mM NaCl; 1:1 binding model; triplicate.
Description: as §1, §4, §5, §2, §3

Another assay has as its target T4, CeuE single mutant Y228F (Campylobacter jejuni, UniProt Q0P8Q4, Y308F).
T4 sequence (Q0P8Q4 44-330 Y308F): T1 sequence (Q0P8Q4 44-330)
Kind of assay: Intrinsic fluorescence quenching titration, CeuE single mutant Y228F. It is filed as binding. As to the method:
as §4, §2
as §3, with “The observed emission intensity was corrected for photomultiplier tube response and buffer subtracted, then integrated between 310 and 410 nm.” left out

The target in assay [3] is T5, CeuE double mutant H227L/Y288F (Campylobacter jejuni, UniProt Q0P8Q4, H247L/Y308F).
T5 sequence (Q0P8Q4 44-330 H247L/Y308F): T1 sequence (Q0P8Q4 44-330)
The experiment in a line: Intrinsic fluorescence quenching titration, CeuE double mutant H227L/Y288F. The class given is binding. As to the method:
as §4, §2
as §3, with “The observed emission intensity was corrected for photomultiplier tube response and buffer subtracted, then integrated between 310 and 410 nm.” left out

The target in assay [4] is T6, CeuE double mutant H227A/Y288F (Campylobacter jejuni, UniProt Q0P8Q4, H247A/Y308F).
T6 sequence (Q0P8Q4 44-330 H247A/Y308F): T1 sequence (Q0P8Q4 44-330)
Kind of assay: Intrinsic fluorescence quenching titration, CeuE double mutant H227A/Y288F. It is filed as binding. As to the method: as §4, §2
as §3, with “The observed emission intensity was corrected for photomultiplier tube response and buffer subtracted, then integrated between 310 and 410 nm.” left out

Another assay relates to CeuE Y228F mutants. Kind of assay: Circular dichroism of LMCT band, Y228F mutants. Particulars: 50 μM in 100 mM TRIS buffer, 150 mM NaCl, 0.5% DMSO, pH 7.5. It is filed as binding, Campylobacter jejuni. From the text: (§6) To confirm that the preference for the Λ-configuration is retained in solution, circular dichroism (CD) spectroscopy was used to probe the ligand-to-metal charge transfer (LMCT) band (Fig. 8(a)). The minimum and maximum of the region of the LMCT band at approximately 408 nm and 595 nm, respectively, are indicative of the Λ-configuration[29], with no CD signal observed in the absence of either the protein or ligand, confirming that the protein selectively binds the Λ-configuration.
(§7) The Y228F mutants gave no signal, confirming a lack of Λ-configuration induction, which may indicate a lack of ligand binding. […] Complexes of H227L and H227A were then prepared with all four Fe-n-Lic complexes.
(§8) Solutions of wild type CeuE and mutant proteins were diluted to 5 × 10^−5 M in buffer containing 150 mM NaCl and 0.11 M Tris, adjusted to pH 7.5. […]
(§9) Spectra were recorded using a solution containing 880 μL 0.11 M Tris pH 7.5, 150 mM NaCl buffer, 100 μL (Fe(III)-n-Lic (n = 4, 5, 6, 8) NTA solution and 20 μL to 5 × 10^−5 M CeuE, resulting in a 50:1 excess of ligand to ensure full binding.
(§10) The spectra were recorded from 300–700 nm and buffer subtracted (data pitch […], scan speed 100 nm min^−1, response 2 seconds, bandwidth 2 nm, path length 1 cm). The spectra were recorded 5 times and averaged.
Background: Circular dichroism is the unequal absorption of left and right circularly polarised light.

The target in assay [5] is T2, CeuE mutant H227L. The experiment in a line: Circular dichroism of LMCT band, mutant H227L. The class given is binding. Particulars: 50 μM in 100 mM TRIS buffer, 150 mM NaCl, 0.5% DMSO, pH 7.5.
Description: as §6, §7, §8, §9, §10

Assay [6] concerns the target T3, CeuE mutant H227A. The experiment in a line: Circular dichroism of LMCT band, mutant H227A. The class given is binding. Particulars: 50 μM in 100 mM TRIS buffer, 150 mM NaCl, 0.5% DMSO, pH 7.5.
Description: as §6, §7, §8, §9, §10

Usually Kd stands for the equilibrium constant for the complex coming apart.

On to `O=C(NCCCCNC(=O)c1cccc(O)c1O)c1cccc(O)c1O` [Fe-4-Lic], for which the Kd on WT CeuE worked out at 21 ± 6 nM; at CeuE mutant H227L [1], 90 ± 30 nM; on CeuE mutant H227A [2], 131 ± 28 nM.

Take `O=C(NCCCCCCCCNC(=O)c1cccc(O)c1O)c1cccc(O)c1O` [Fe-8-Lic]: the dissociation constant (Kd) on WT CeuE was 58 ± 8 nM; at CeuE mutant H227L [1], 112 ± 21 nM; at CeuE mutant H227A [2], 125 ± 36 nM.

As to `O=C(NCCCCCNC(=O)c1cccc(O)c1O)c1cccc(O)c1O` [Fe-5-Lic], the Kd on WT CeuE is below 10 nM; at CeuE mutant H227L [1] it was 22 ± 10 nM; at CeuE mutant H227A [2] it was 35 ± 14 nM; at CeuE single mutant Y228F, above 1000 nM; in assay [3], above 1000 nM; in assay [4], above 1000 nM. The “CD signal of Λ-configuration (LMCT band), Y228F mutants” value with CeuE Y228F mutants is recorded as “no signal”. Also, the “CD signal of Λ-configuration (LMCT band), mutant H227L” value at CeuE mutant H227L [5] was “Λ-configuration signal was observed”. In addition, on CeuE mutant H227A [6], the “CD signal of Λ-configuration (LMCT band), mutant H227A” value is listed as “Λ-configuration signal was observed”.

Take `O=C(NCCCCCCNC(=O)c1cccc(O)c1O)c1cccc(O)c1O` [Fe-6-Lic]: the results for the Kd at WT CeuE, on CeuE mutant H227L [1] and on CeuE mutant H227A [2] were 33 ± 8 nM, 65 ± 21 nM and 41 ± 7 nM, respectively.
